Key:
KA induced SE [1] = assay: KA induced SE, EEG, direct injection into the hippocampus; assay type: in vivo, mice; settings: injected into the hippocampus, DZ 2 h after KA
Description: 30 or 60 min later mice were injected with KA (20 mg/kg) and 2 h later with DZ as detailed above.

KCC2 = molecular target: T1, KCC2 (Homo sapiens, UniProt Q9H2X9); assay: FLIPR Tl+ flux assay in HEK-293 cells expressing KCC2; assay type: cell-based; settings: saturating concentration of 3 μM, 1% BCD vehicle
T1 construct: expressed in transfected cells; host or cells: HEK-293 (ATCC CRL-1573)
T1 sequence (Q9H2X9 1-1116 isoform Q9H2X9-2): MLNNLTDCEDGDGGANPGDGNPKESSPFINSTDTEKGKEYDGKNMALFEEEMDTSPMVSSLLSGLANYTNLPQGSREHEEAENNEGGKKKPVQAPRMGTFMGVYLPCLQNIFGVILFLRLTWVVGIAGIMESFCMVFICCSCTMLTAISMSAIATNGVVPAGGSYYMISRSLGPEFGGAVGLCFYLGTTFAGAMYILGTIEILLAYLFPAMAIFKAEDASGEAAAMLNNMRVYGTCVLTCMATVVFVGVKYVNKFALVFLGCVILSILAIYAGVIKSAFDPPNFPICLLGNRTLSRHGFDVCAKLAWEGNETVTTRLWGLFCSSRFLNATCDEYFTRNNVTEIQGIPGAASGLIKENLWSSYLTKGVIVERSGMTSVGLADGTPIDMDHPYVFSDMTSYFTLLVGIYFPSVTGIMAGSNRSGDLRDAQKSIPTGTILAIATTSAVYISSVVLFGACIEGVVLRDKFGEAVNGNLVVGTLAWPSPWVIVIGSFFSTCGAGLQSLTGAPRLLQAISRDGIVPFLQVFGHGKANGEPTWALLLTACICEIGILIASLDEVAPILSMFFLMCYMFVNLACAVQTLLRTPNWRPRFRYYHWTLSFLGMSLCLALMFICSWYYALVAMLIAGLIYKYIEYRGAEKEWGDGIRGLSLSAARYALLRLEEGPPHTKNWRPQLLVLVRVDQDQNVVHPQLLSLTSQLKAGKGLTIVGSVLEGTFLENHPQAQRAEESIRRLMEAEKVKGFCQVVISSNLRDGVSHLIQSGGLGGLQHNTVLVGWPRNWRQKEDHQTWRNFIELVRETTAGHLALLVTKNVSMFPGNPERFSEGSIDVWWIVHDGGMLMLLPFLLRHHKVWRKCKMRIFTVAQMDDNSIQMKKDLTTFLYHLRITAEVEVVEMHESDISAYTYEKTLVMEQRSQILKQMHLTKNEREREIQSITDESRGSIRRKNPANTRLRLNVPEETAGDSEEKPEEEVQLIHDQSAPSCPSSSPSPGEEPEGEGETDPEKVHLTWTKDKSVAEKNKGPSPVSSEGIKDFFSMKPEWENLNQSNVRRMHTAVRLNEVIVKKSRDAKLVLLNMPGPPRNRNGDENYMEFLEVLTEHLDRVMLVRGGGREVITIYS
Description: A multi-tiered high-throughput screening assay was used, leveraging a proprietary library of 1.3 million small molecule compounds from AstraZeneca (Cambridge, UK) to identify chemical entities capable of activating KCC2. A single point concentration of 30 μM was used to identify potassium flux using an established thallium (TI+) influx FLIPR assay as the primary read out in HEK-293 cells overexpressing KCC2 (Cardarelli et al., Nat. Med. 23, 1394-1396 (2017); Conway et al., J Biol Chem 292, 21253-21263 (2017); Lee et al., 2022, supra).
Cell Culture and biotinylation. […]
FLIPR TI Flux assay. HEK-293 cells were washed with HBSS, and then incubated with loading buffer containing TI sensitive fluorescent dye (https://www.moleculardevices.com), 20 μM bumetanide 20 μM ouabain and 2.5 mM probenecid for 1 h at room temperature (RT) under control conditions or with drugs in the dark using a FlexStation 3 microplate reader (Molecular Devices) and imaged […] for 30 min. Stimulus buffer was added containing 5 mM K^+/0.5 mM Tl^+ and cells were imaged every 1.5 over a 190 second time course The initial rate Tl^+ uptake (Relative Fluorescence Units (RFU) per second) was determined following addition of the stimulus buffer as outlined previously (Conway et al., 2017, supra) (Lee et al., 2022, supra). […]

[2] = system: panel of 144 protein kinases; assay: Protein kinase panel (SelectScreen; Thermofisher); assay type: biochemical; settings: 144 protein kinases incl. PKC isoforms, OSR1, SPAK, WNK
Description: Aliquots of HEK-293 cells expressing KCC2 were exposed to 30 μM SSA, heated from 37-55° C. The remaining level of soluble native KCC2 at each temperature was measured by immunoblotting and normalized to the level seen at 37° C. which was given a value of 1. […] This panel included protein kinase C isoforms, OSR1, SPAK (STK39) and with-no-lysine kinases (WNK), all of which phosphorylate KCC2 on multiple residues to indirectly modify its activity (Kahle et al., 2013, supra; Smalley et al., 2020, supra).

KA induced SE [3] = assay: KA induced ongoing SE, EEG, treatment 2 h after KA; assay type: in vivo, mice
Description: EEG recordings and analysis. WT C57Bl/6J adult male mice (12 weeks) were anesthetized with isofluorane and implanted with EEG/EMG electrodes and allowed to recover for 7 days prior to experimentation. […] 2 h following KA administration mice were injected with a saturating concentration of diazepam (DZ) 10 mg/kg (IP) and recordings were extended for a further 60 min. […] LabChart 8 software was used for data analysis. Epileptiform activity was identified by changes in the amplitude of electrographic activity characterized by consistent changes in the power of the Fast Fourier transform (FFT) of the EEG and abnormal activity characterized by periods of rhythmic spiking lasting longer than 30 s (Moore et al., 2017, supra; Silayeva et al., 2015, supra; Sivakumaran et al., J. Neurosci. 35, 8291-8296 (2015)).
To evaluate the potential of KCC2 activators to terminate ongoing SE, the KA model described above was employed. Mice were injected with KA (20 mg/Kg; IP). […] Spectral data were then subjected to FFT and the total EEG power between 1-100 Hz of the 2 h following KA treatment (pre-drug) and 30 min following their injection (post-drug) were compared (FIG. 6B). In mice treated with DZ alone variable effects were observed, from large increases to modest reductions in EEG power, but these effects were not significant (FIG. 6C; pre=1.1±0.2×10^−6, post=4.4±7.4×10^−7 μV^2, p=0.214, n=13-14 mice). […]

KA induced SE [4] = assay: Kainic acid (KA) induced SE, EEG, pretreatment; assay type: in vivo, mice; settings: Compound A pretreated, 2 h after KA, pre DZ; vehicle 4.2±2.4×10^−6
Description: This model was chosen due to the similarities with patients undergoing SE, as KA-induced seizures become refractory to benzodiazepines (BDZs) within minutes (Betjemann and Lowenstein, Lancet Neurol 14, 615-624 (2015); Crawshaw and Cock, (2020a) [Seizure: Eur. J. Epilep. 75 (2020) 145-152] Seizure 80, 282; Lee et al., 2022, supra; Reddy and Kuruba, Int J Mol Sci 14, 18284-18318 (2013)).
EEG recordings and analysis. WT C57Bl/6J adult male mice (12 weeks) were anesthetized with isofluorane and implanted with EEG/EMG electrodes and allowed to recover for 7 days prior to experimentation. […] 2 h following KA administration mice were injected with a saturating concentration of diazepam (DZ) 10 mg/kg (IP) and recordings were extended for a further 60 min. […] LabChart 8 software was used for data analysis. […]
To provide quantitative insights on the effects of KA, raw EEG recordings were subject to Fast-Fourier transformation (8K FFT size, Hann (cosine-bell), 87.50% window overlap) for frequencies between 0-100 Hz 2 h after KA injection (Lee et al., 2022, supra). […]

Row | Compound | effect of DZ on seizure parameters in pretreated mice (KA induced SE [1]) | maximum potentiation (KCC2) [%] | activity of kinase panel [2] | DZ insensitivity (KA induced SE [3]; Compound A 50 mg/kg with DZ 10 mg/kg IP) | total EEG power (KA induced SE [4]) | mice insensitive to the effects on EEG power (KA induced SE [3]; DZ 10 mg/kg IP 2 h after KA) [%]
1 | C[C@@H]1CN(c2nc3c(c(Nc4ccc(C5CCCCC5)cc4)n2)COC3)CCO1 [Compound A, (R)—N-(4-cyclohexylphenyl)-2-(2-methylmorpholino)-5,7-dihydrofuro[3,4-d]pyrimidin-4-amine] | significantly reduced | 90 | did not modify the activity | abolished | 6.9±3.2×10^−7 μV^2 | 
2 | CN1C(=O)CN=C(c2ccccc2)c2cc(Cl)ccc21 [DZ, diazepam, reference compound] |  |  |  |  |  | 62
